The values that follow come from patent US9617276B2, “Compounds and methods for treating AIDS and HIV infections” (priority 2009, dated 2017).

Some results are limits rather than exact numbers.

The experiment concerns the target T1, HIV-1 protease (Human immunodeficiency virus type 1 group M subtype B, UniProt P04585).
T1 construct: A simple, continuous fluorometric assay for HIV protease
Put plainly: HIV protease enzyme inhibition, fluorometric assay of Toth and Marshall. Particulars: Ki. The experiment is classed as biochemical. Here is the method:
The inhibitory potencies of acyclic and cyclic inhibitors were measured by the assay protocol of Toth and Marshall (Toth, M. V.; Marshall, G. R. A simple, continuous fluorometric assay for HIV protease. Int. J. Pep. Protien Res. 1990, 36, 544-55).

Usually Ki stands for a measure of affinity in units of concentration, obtained from inhibition or displacement. Molecule `COc1ccc2c(c1)OCCCC=CCCCCN(CC(O)C(Cc1ccccc1)NC(=O)OC1COC3OCCC13)S2(=O)=O` (centres unmarked) [Compound 14b] showed a Ki below 700 pM. The molecule further gave an inhibition constant Ki (Table 2) below 1000 pM.
